Several values for one entry are separate records, joined by “and”; a condition that tells them apart may be missing. Equal values may be shown once. Entries after “also recorded” stand apart in the source; their conditions may differ.
Key:
AfCYP51B-6×His [1] = biological target: T1, AfCYP51B-6×His (Aspergillus fumigatus, UniProt E9QY26); experiment: Type I binding of substrates (difference spectra)
T1 sequence (E9QY26 1-524): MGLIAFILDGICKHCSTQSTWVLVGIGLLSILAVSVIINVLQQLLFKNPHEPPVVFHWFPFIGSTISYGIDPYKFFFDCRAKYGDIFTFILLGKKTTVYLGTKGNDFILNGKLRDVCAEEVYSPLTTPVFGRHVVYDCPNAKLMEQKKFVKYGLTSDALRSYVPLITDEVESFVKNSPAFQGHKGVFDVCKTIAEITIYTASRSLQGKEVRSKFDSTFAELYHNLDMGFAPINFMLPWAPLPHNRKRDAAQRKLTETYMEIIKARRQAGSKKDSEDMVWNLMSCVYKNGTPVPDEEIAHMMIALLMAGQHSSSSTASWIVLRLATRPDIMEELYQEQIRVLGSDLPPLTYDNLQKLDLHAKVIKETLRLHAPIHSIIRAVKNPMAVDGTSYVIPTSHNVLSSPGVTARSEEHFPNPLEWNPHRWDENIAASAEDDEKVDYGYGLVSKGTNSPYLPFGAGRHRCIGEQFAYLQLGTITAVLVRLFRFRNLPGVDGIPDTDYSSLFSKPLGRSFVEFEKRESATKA
Protocol: (§1) The concentration of AfCYP51A and AfCYP51B, purified using Ni-NTA affinity chromatography and used for the spectrophotometric type I and type II binding assays, was calculated using an extinction co-efficient of λ417nm = 117 mM^−1 cm^−1 applied to the absolute absorption spectrum of the preparations. In addition, the amount of “active” cytochrome P450 enzyme was determined using the carbon monoxide (CO) binding spectra of these preparations.
(§2) Type I binding of substrates lanosterol and eburicol in the active site of the Ni-NTA affinity-purified AfCYP51A and AfCYP51B enzymes was assessed using the method of Warrilow et al.. Titrations of 5 μM AfCYP51-6×His protein with lanosterol or eburicol (1 to 250 μM) were measured using a Cary 300 UV–Visible Spectrophotometer (Agilent Technologies, Santa Clara, CA, USA). Substrate saturation curves were constructed by plotting the maximal ∆Apeak−trough obtained between 350 and 500 nm, allowing for a change in the reaction volume during the titration. The substrate binding constant (KS) was calculated by nonlinear regression (Levenberg–Marquardt algorithm) applied to the Michaelis–Menten equation or the Hill equation. GraphPad Prism 9.2.0 software was used to identify the best fit for the data.

AfCYP51A-6×His = AfCYP51A-6×His (Aspergillus fumigatus, UniProt Q4WNT5); experiment: Type I binding of substrates (difference spectra); design: Full-length codon-optimised AfCYP51A-6×His and AfCYP51B-6×His were constitutively co-expressed; made in house; conditions: AfCYP51A-6×His 5 µM, concentrations up to 300 μM
Sequence of AfCYP51A-6×His (Q4WNT5 whole entry): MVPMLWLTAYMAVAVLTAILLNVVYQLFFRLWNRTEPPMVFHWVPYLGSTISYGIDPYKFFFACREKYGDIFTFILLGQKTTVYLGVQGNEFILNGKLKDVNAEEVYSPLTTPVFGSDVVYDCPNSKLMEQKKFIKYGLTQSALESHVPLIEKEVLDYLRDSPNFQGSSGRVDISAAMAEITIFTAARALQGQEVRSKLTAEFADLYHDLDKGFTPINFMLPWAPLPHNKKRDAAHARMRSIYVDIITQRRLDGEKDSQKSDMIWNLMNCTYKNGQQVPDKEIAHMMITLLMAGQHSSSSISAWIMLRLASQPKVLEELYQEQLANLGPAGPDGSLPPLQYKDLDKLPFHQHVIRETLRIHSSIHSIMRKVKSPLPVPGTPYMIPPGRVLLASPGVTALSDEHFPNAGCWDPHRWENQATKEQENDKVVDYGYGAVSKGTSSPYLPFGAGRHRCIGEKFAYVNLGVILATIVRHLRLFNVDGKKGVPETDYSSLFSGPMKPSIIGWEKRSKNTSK
Protocol: as §1
as §2, with “Titrations of 5 μM AfCYP51-6×His protein with lanosterol or eburicol (1 to 250 μM) were measured using a Cary 300 UV–Visible Spectrophotometer (Agilent Technologies, Santa Clara, CA, USA).” left out

[2] = system: S. cerevisiae strain ADΔΔ (native ScCYP51); experiment: MIC80 susceptibility, host strain ADΔΔ; assay type: cell-based; conditions: Saccharomyces cerevisiae, Table 2, SD pH 6.8, 48 h, 30 °C
Protocol: (§3) The susceptibilities of S. cerevisiae strains to antifungal drugs were determined as minimum growth inhibitory concentration (MIC) values in 200 μL SD pH 6.8 [24]. Serial 2-fold dilutions of 100 μL of azole or control drugs in SD pH 6.8 were prepared in a 96-well microtiter plate. A portion of a 2 mL SD pH 6.8 overnight culture of the test strain was inoculated into 3 mL fresh SD pH 6.8 and incubated for 4 to 6 h at 30 °C to generate logarithmic-phase cells. These cells were then diluted with fresh SD pH 6.8 to OD600nm = 0.01 (3 × 10^4 CFU), and 100 μL of this cell suspension was added to microtiter plate wells. Cell growth after 48 h incubation at 30 °C with shaking at 200 rpm was determined at 600 nm using a BioTek™ Synergy™ 2 multi-Mode microplate reader controlled using Gen5™ Data Analysis Software version 3.16.10 (BioTek Instruments, Winooski, VT, USA). MIC80 values (80% growth inhibition in the presence of the test drug compared with the untreated control) for each yeast construct were determined as technical triplicates repeated three times for three separate clones.

[3] = system: S. cerevisiae strain A (AfCyp51A-6×His, native ScCyp51 retained); experiment: MIC80 susceptibility, strain A; assay type: cell-based; conditions: Saccharomyces cerevisiae, Table 2, SD pH 6.8, 48 h, 30 °C
Protocol: as §3

[4] = system: S. cerevisiae strain ARE (AfCyp51A-6×His, AfCprA2, AfErg6-FLAG); experiment: MIC80 susceptibility, strain ARE; assay type: cell-based, Saccharomyces cerevisiae; conditions: Saccharomyces cerevisiae; Table 2; strain ARE; SD pH 6.8, 48 h, 30 °C; ± SD; read-out: MIC80
Protocol: as §3

[5] = system: S. cerevisiae strain ARE Y121F (AfCyp51A-6×His Y121F, AfCprA2, AfErg6-FLAG); experiment: MIC80 susceptibility, strain Y121F; assay type: cell-based, Saccharomyces cerevisiae; conditions: Saccharomyces cerevisiae; Table 2; strain Y121F; SD pH 6.8, 48 h, 30 °C; ± SD; read-out: MIC80
Protocol: as §3

[6] = system: S. cerevisiae strain ARE T289A (AfCyp51A-6×His T289A, AfCprA2, AfErg6-FLAG); experiment: MIC80 susceptibility, strain T289A; assay type: cell-based, Saccharomyces cerevisiae
Protocol: as §3

[7] = system: S. cerevisiae strain ARE Y121F T289A (AfCyp51A-6×His Y121F T289A, AfCprA2, AfErg6-FLAG); experiment: MIC80 susceptibility, strain Y121F T289A; assay type: cell-based, Saccharomyces cerevisiae; conditions: Saccharomyces cerevisiae; Table 2; strain Y121F T289A; SD pH 6.8, 48 h, 30 °C; ± SD; read-out: MIC80
Protocol: as §3

[8] = system: S. cerevisiae strain ARE I301T (AfCyp51A-6×His I301T, AfCprA2, AfErg6-FLAG); experiment: MIC80 susceptibility, strain I301T; assay type: cell-based, Saccharomyces cerevisiae; conditions: Saccharomyces cerevisiae, 48 h, pH 6.8, Table 2; strain I301T; SD pH 6.8, 48 h, 30 °C; ± SD; read-out: MIC80
Protocol: as §3

[9] = system: S. cerevisiae strain B (AfCyp51B-6×His, native ScCyp51 retained); experiment: MIC80 susceptibility, strain B; assay type: cell-based; conditions: Saccharomyces cerevisiae, Table 2, SD pH 6.8, 48 h, 30 °C
Protocol: as §3

[10] = system: S. cerevisiae strain BRE (AfCyp51B-6×His, AfCprA2, AfErg6-FLAG); experiment: MIC80 susceptibility, strain BRE; assay type: cell-based, Saccharomyces cerevisiae; conditions: Saccharomyces cerevisiae; Table 2; strain BRE; SD pH 6.8, 48 h, 30 °C; ± SD; read-out: MIC80
Protocol: as §3

AfCYP51B-6×His [11] = biological target: T1, AfCYP51B-6×His; experiment: Type II binding of azole drugs (difference spectra)
Protocol: as §1
Type II binding difference spectra were obtained using 1 μM of affinity-purified CYP51 enzymes. VCZ, PCZ, VT-1161, DCZ, and MCF working solutions were prepared in DMSO, while FLC was prepared in Milli-Q water. Azole drugs were added to the sample cuvette, and corresponding amounts of DMSO or Milli-Q water were added to the reference cuvette. Drug binding curves were plotted using the difference spectrum peak and trough detected in the range of 410–425 nm. Dissociation constants (Kd) were determined by nonlinear regression (Levenberg–Marquardt algorithm) of the difference in absorbance between the peak and trough against the azole concentration using a rearrangement of the Morrison equation or the Hill equation [7]. GraphPad Prism 9.2.0 software was used to identify the best fit for the data.

CC(C)=CCC[C@@H](C)[C@H]1CC[C@@]2(C)C3=C(CC[C@]12C)[C@@]1(C)CC[C@H](O)C(C)(C)[C@@H]1CC3 [Lanosterol, lanosterol] was tested, and the “type I binding spectrum peak” value (AfCYP51B-6×His [1]; AfCYP51B-6×His) was 386 nm, the “type I binding spectrum trough” value (AfCYP51B-6×His [1]; AfCYP51B-6×His) was 423 nm and the “ΔAmax (type I binding)” value (AfCYP51B-6×His [1]; AfCYP51B-6×His 5 μM, Michaelis–Menten equation) was 0.22 and 0.219. For the same compound, the Kd (AfCYP51B-6×His [1]; AfCYP51B-6×His 5 μM, type I binding, Michaelis–Menten equation, read-out: Ks) was 477 µM, the “affinity of AfCYP51B for eburicol versus lanosterol” value (AfCYP51B-6×His [1]; ratio of Ks values) was “approximately 6 fold” and the “type I binding response” value (AfCYP51A-6×His) was “did not give the expected type I binding response; also recorded: did not give a type I binding response”.
Work on O[C@@](Cn1cnnn1)(c1ccc(F)cc1F)C(F)(F)c1ccc(-c2ccc(OCC(F)(F)F)cc2)cn1 [VT-1161, oteseconazole] yielded an MIC80 [2] of 0.01 µM, an MIC80 [3] of 0.03 µM and an MIC80 [4] of 0.43 ± 0.05 µM. The MIC80 [5] was 0.53 ± 0.02 µM, the “greater susceptibility (MIC80) of strain T289A compared with strain ARE” value [6] was 21 fold and the MIC80 ([6]; Saccharomyces cerevisiae, 48 h, pH 6.8, Table 2, strain T289A, SD pH 6.8, 48 h, 30 °C, ± SD, read-out: MIC80) was 0.02 µM. The MIC80 [7] was 1.07 ± 0.05 µM, the MIC80 [8] was 0.14 ± 0.04 µM and the MIC80 [9] was 0.05 ± 0.01 µM. For the same compound, the MIC80 [10] was 0.06 ± 0.01 µM, the “λpeak (type II difference spectrum)” value (AfCYP51B-6×His [11]; 1 μM enzyme) was 423 nm and the “λtrough (type II difference spectrum)” value (AfCYP51B-6×His [11]; 1 μM enzyme) was 391 nm. The “ΔAmax (type II binding)” value (AfCYP51B-6×His [11]; 1 μM enzyme, Hill equation) was 0.11, the “Hill Number” value (AfCYP51B-6×His [11]; type II binding) was 0.87 and the Kd (AfCYP51B-6×His [11]; type II binding, 1 μM enzyme, Hill equation) was 3.23 ± 2.5 µM.
